Results from US9650395B2, “Antibacterial compounds and methods for use” (PTC Therapeutics, Inc., priority 2011, dated 2017).
Values after ≈ are worked out from the molar mass of the structure shown. Where a name gives a salt, the structure may show the parent alone. Read-outs that look alike come from different tables or passages of the source.

Legend:
[1] = system: super sensitive Gram-negative Escherichia coli (E. coli) BAS849; assay: Antibacterial activity, microbroth dilution MIC, E. coli BAS849; type: cell-based; conditions: Escherichia coli, read-out: MIC, BAS849
[2] = system: control Gram-negative E. coli 25922 strain; assay: Antibacterial activity, microbroth dilution MIC, E. coli 25922; type: cell-based, Escherichia coli; conditions: Escherichia coli, read-out: MIC, 25922
[3] = system: Gram-positive Staphylococcus aureus (S. aureus) 29213; assay: Antibacterial activity, microbroth dilution MIC, S. aureus 29213; type: cell-based; conditions: Staphylococcus aureus, read-out: MIC, 29213
[4] = system: quinolone resistant E. coli LZ3111; assay: Antibacterial activity, MIC, quinolone resistant E. coli LZ3111; type: cell-based, Escherichia coli; conditions: Escherichia coli, read-out: MIC, LZ3111
Source text: The antibacterial activity from a microbroth dilution method may be presented as the minimum inhibitory concentration (MIC in […]). The MIC value is the lowest concentration of a drug which prevents macroscopically visible bacterial growth under test conditions.
Mutations in these regions are known to confer a high level resistance to the quinolone class of antibiotics.

[5] = E. coli BAS849, microbroth dilution
[6] = E. coli 25922, microbroth dilution
[7] = S. aureus 29213, microbroth dilution

SMILES	MIC [1, 5] [µg/mL]	MIC [2, 6] [µg/mL]	MIC [3, 7] [µg/mL]	MIC [4] [µg/mL]	MIC [1] [µg/mL]	MIC [2] [µg/mL]	MIC [3] [µg/mL]
CC(C)c1cc(C(=O)O)c(=O)[nH]c1-c1ccc(N(C)CCN(C)C)cc1 [Cpd 165, 6-(4-{[2-(dimethylamino)ethyl](methyl)amino}phenyl)-2-oxo-5-(propan-2-yl)-1,2-dihydropyridine-3-carboxylic acid]	1 to 3.5 (≈ 2.8 to 9.79 µM)	12.5 to 150 (≈ 35 to 420 µM)	12.5 to 150 (≈ 35 to 420 µM)	12.5 to 150 (≈ 35 to 420 µM)			
CCc1cc(C(=O)O)c(=O)[nH]c1-c1ccc(N2CCC(C)(N)C2)cc1.O=C(O)C(F)(F)F (centres unmarked) [Cpd 166, 6-[4-(3-amino-3-methylpyrrolidin-1-yl)phenyl]-5-ethyl-2-oxo-1,2-dihydropyridine-3-carboxylic acid trifluoroacetate]		3.5 to 12.5	12.5 to 150	12.5 to 150	< 1		
CCc1cc(C(=O)O)c(=O)[nH]c1-c1ccc(N2CC(NC(=O)N(C)CC(=O)O)C2)cc1 [Cpd 167, 6-[4-(3-{[(carboxymethyl)(methyl)carbamoyl]amino}azetidin-1-yl)phenyl]-5-ethyl-2-oxo-1,2-dihydropyridine-3-carboxylic acid]	1 to 3.5 (≈ 2.33 to 8.17 µM)	12.5 to 150 (≈ 29.2 to 350 µM)	12.5 to 150 (≈ 29.2 to 350 µM)	12.5 to 150 (≈ 29.2 to 350 µM)			
CCc1cc(C(=O)O)c(=O)[nH]c1-c1ccc(N2CC(n3nnc(C)n3)C2)cc1 [Cpd 168, 5-ethyl-6-{4-[3-(5-methyl-2H-tetrazol-2-yl)azetidin-1-yl]phenyl}-2-oxo-1,2-dihydropyridine-3-carboxylic acid]	< 1	12.5 to 150 (≈ 32.9 to 394 µM)	12.5 to 150 (≈ 32.9 to 394 µM)	12.5 to 150 (≈ 32.9 to 394 µM)			
CCc1cc(C(=O)O)c(=O)[nH]c1-c1ccc(N2CC3CC3(N)C2)cc1.Cl (centres unmarked) [Cpd 169, 6-[4-(1-amino-3-azabicyclo[3.1.0]hex-3-yl)phenyl]-5-ethyl-2-oxo-1,2-dihydropyridine-3-carboxylic acid hydrochloride]	< 1	1 to 3.5	12.5 to 150	12.5 to 150			
CCc1cc(C(=O)O)c(=O)[nH]c1-c1ccc(N2CCC(N3CCCC3)C2)cc1 (centres unmarked) [Cpd 175, 6-[4-(1,3′-bipyrrolidin-1′-yl)phenyl]-5-ethyl-2-oxo-1,2-dihydropyridine-3-carboxylic acid]	< 1	1 to 3.5 (≈ 2.62 to 9.17 µM)	12.5 to 150 (≈ 32.8 to 393 µM)	12.5 to 150 (≈ 32.8 to 393 µM)			
CCc1cc(C(=O)O)c(=O)[nH]c1-c1ccc(N2CCC(CNC)C2)cc1.Cl (centres unmarked) [Cpd 184, 5-ethyl-6-(4-{3-[(methylamino)methyl]pyrrolidin-1-yl}phenyl)-2-oxo-1,2-dihydropyridine-3-carboxylic acid hydrochloride]	1 to 3.5	12.5 to 150	12.5 to 150	12.5 to 150			
CCc1cc(C(=O)O)c(=O)[nH]c1-c1ccc(N2CCC(CN)C2)cc1.O=C(O)C(F)(F)F (centres unmarked) [Cpd 188, 6-{4-[3-(aminomethyl)pyrrolidin-1-yl]phenyl}-5-ethyl-2-oxo-1,2-dihydropyridine-3-carboxylic acid trifluoroacetate]		3.5 to 12.5	12.5 to 150	12.5 to 150	< 1		
CCc1cc(C(=O)O)c(=O)[nH]c1-c1ccc(N2C[C@H]3CCN[C@H]3C2)cc1.O=C(O)C(F)(F)F [Cpd 190, 5-ethyl-6-{4-[(3aR,6aR)-hexahydropyrrolo[3,4-b]pyrrol-5(1H)-yl]phenyl}-2-oxo-1,2-dihydropyridine-3-carboxylic acid trifluoroacetate]		12.5 to 150	12.5 to 150	12.5 to 150	1 to 3.5		
CCc1cc(C(=O)O)c(=O)[nH]c1-c1ccc(N2CCC(CN3CCCC3)C2)cc1 (centres unmarked) [Cpd 191, 5-ethyl-2-oxo-6-{4-[3-(pyrrolidin-1-ylmethyl)pyrrolidin-1-yl]phenyl}-1,2-dihydropyridine-3-carboxylic acid]	< 1	1 to 3.5 (≈ 2.53 to 8.85 µM)	12.5 to 150 (≈ 31.6 to 379 µM)	12.5 to 150 (≈ 31.6 to 379 µM)			
CCc1cc(C(=O)O)c(=O)[nH]c1-c1ccc(N2C[C@H]3CCC[C@@H](N(C)C)[C@H]3C2)cc1.Cl [Cpd 193, 6-{4-[(3aR,4R,7aS)-4-(dimethylamino)octahydro-2H-isoindol-2-yl]phenyl}-5-ethyl-2-oxo-1,2-dihydropyridine-3-carboxylic acid hydrochloride]	1 to 3.5	12.5 to 150	12.5 to 150	12.5 to 150			
CCc1cc(C(=O)O)c(=O)[nH]c1-c1ccc(N2C[C@H]3CCC[C@@H](N(C)Cc4ccccc4)[C@H]3C2)cc1.O=C(O)C(F)(F)F [Cpd 194, 6-(4-{(3aR,4R,7aS)-4-[benzyl(methyl)amino]octahydro-2H-isoindol-2-yl}phenyl)-5-ethyl-2-oxo-1,2-dihydropyridine-3-carboxylic acid trifluoroacetate]		12.5 to 150	3.5 to 12.5	12.5 to 150	1 to 3.5		
CCc1cc(C(=O)O)c(=O)[nH]c1-c1ccc(N2C[C@H]3CCC[C@@H](NC)[C@H]3C2)cc1 [Cpd 195, 5-ethyl-6-{4-[(3aR,4R,7aS)-4-(methylamino)octahydro-2H-isoiridol-2-yl]phenyl}-2-oxo-1,2-dihydropyridine-3-carboxylic acid trifluoroacetate]		3.5 to 12.5	12.5 to 150	12.5 to 150	1 to 3.5		
CCc1cc(C(=O)O)c(=O)[nH]c1-c1ccc(N2C[C@H]3CCC[C@@H](N(Cc4ccccc4)Cc4ccccc4)[C@H]3C2)cc1.O=C(O)C(F)(F)F [Cpd 196, 6-{4-[(3aR,4R,7aS)-4-(dibenzylamino)octahydro-2H-isoindol-2-yl]phenyl}-5-ethyl-2-oxo-1,2-dihydropyridine-3-carboxylic acid trifluoroacetate]		12.5 to 150	12.5 to 150	12.5 to 150	12.5 to 150		
CCc1cc(C(=O)O)c(=O)[nH]c1-c1ccc(N2C[C@H]3CCC[C@@H](N)[C@H]3C2)cc1.O=C(O)C(F)(F)F [Cpd 197, 6-{4-[(3aR,4R,7aS)-4-aminooctahydro-2H-isoindol-2-yl]phenyl}-5-ethyl-2-oxo-1,2-dihydropyridine-3-carboxylic acid trifluoroacetate]		12.5 to 150	12.5 to 150	12.5 to 150	3.5 to 12.5		
CCc1cc(C(=O)O)c(=O)[nH]c1-c1ccc(N2C[C@H]3CC[C@@H](N(C)C)[C@H]3C2)cc1.Cl [Cpd 198, 6-{4-[(3aR,4R,6aS)-4-(dimethylamino)hexahydrocyclopenta[c]pyrrol-2(1H)-yl]phenyl}-5-ethyl-2-oxo-1,2-dihydropyridine-3-carboxylic acid hydrochloride]	< 1	3.5 to 12.5	12.5 to 150	12.5 to 150			
CCc1cc(C(=O)O)c(=O)[nH]c1-c1ccc(N2C[C@H]3CC[C@@H](N(C)Cc4ccccc4)[C@H]3C2)cc1.Cl [Cpd 199, 6-{4-[(3aR,4R,6aS)-4-[benzyl(methyl)amino]hexahydrocyclopenta[c]pyrrol-2(1H)-yl]phenyl}-5-ethyl-2-oxo-1,2-dihydropyridine-3-carboxylic acid hydrochloride]	< 1	3.5 to 12.5	3.5 to 12.5	12.5 to 150			
CCc1cc(C(=O)O)c(=O)[nH]c1-c1ccc(N2C[C@H]3CC[C@@H](NC)[C@H]3C2)cc1.Cl [Cpd 200, 5-ethyl-6-{4-[(3aR,4R,6aS)-4-(methylamino)hexahydrocyclopenta[c]pyrrol-2(1H)-yl]phenyl}-2-oxo-1,2-dihydropyridine-3-carboxylic acid hydrochloride]	1 to 3.5	3.5 to 12.5	12.5 to 150	12.5 to 150			
CCc1cc(C(=O)O)c(=O)[nH]c1-c1ccc(N2C[C@H]3CC[C@@H](N(Cc4ccccc4)Cc4ccccc4)[C@H]3C2)cc1.O=C(O)C(F)(F)F [Cpd 201, 6-{4-[(3aR,4R,6aS)-4-(dibenzylamino)hexahydrocyclopenta[c]pyrrol-2(1H)-yl]phenyl}-5-ethyl-2-oxo-1,2-dihydropyridine-3-carboxylic acid trifluoroacetate]		12.5 to 150	12.5 to 150	12.5 to 150	3.5 to 12.5		
CCc1cc(C(=O)O)c(=O)[nH]c1-c1ccc(N2C[C@H]3CC[C@H](N)[C@H]3C2)cc1.O=C(O)C(F)(F)F [Cpd 204, 6-{4-[(3aR,4S,6aS)-4-aminohexahydrocyclopenta[c]pyrrol-2(1H)-yl]phenyl}-5-ethyl-2-oxo-1,2-dihydropyridine-3-carboxylic acid trifluoroacetate]		12.5 to 150	12.5 to 150	12.5 to 150	1 to 3.5		
CCc1cc(C(=O)O)c(=O)[nH]c1-c1ccc(N2C[C@H]3CCCC[C@@]3(CN(C)C)C2)cc1.O=C(O)C(F)(F)F [Cpd 205, 6-(4-{(3aR,7aS)-3a-[(dimethylamino)methyl]octahydro-2H-isoindol-2-yl}phenyl)-5-ethyl-2-oxo-1,2-dihydropyridine-3-carboxylic acid trifluoroacetate]		12.5 to 150	12.5 to 150	12.5 to 150	1 to 3.5		
CCc1cc(C(=O)O)c(=O)[nH]c1-c1ccc(N2C[C@H]3CNC[C@H]3C2)cc1.Cl [Cpd 207, 5-ethyl-6-{4-[(3aR,6aS)-hexahydropyrrolo[3,4-c]pyrrol-2(1H)-yl]phenyl}-2-oxo-1,2-dihydropyridine-3-carboxylic acid hydrochloride]	3.5 to 12.5	12.5 to 150	12.5 to 150	12.5 to 150			
CCc1cc(C(=O)O)c(=O)[nH]c1-c1ccc(N2CC3NC3C2)cc1 (centres unmarked) [Cpd 209, 6-[4-(3,6-diazabicyclo[3.1.0]hex-3-yl)phenyl]-5-ethyl-2-oxo-1,2-dihydropyridine-3-carboxylic acid]	3.5 to 12.5 (≈ 10.8 to 38.4 µM)			12.5 to 150 (≈ 38.4 to 461 µM)		12.5 to 150 (≈ 38.4 to 461 µM)	12.5 to 150 (≈ 38.4 to 461 µM)
